Target: human NaV 1.8 (Homo sapiens, UniProt Q9Y5Y9)
Assay: E-VIPR Assay Detecting and Measuring NaV Inhibition Properties
Assay type: cell-based
Details: HEK cells expressing a truncated form of human NaV 1.8 with full channel activity; electrical stimulation, membrane potential FRET dyes; read-out: measured IC50 value in the E-VIPR Assay
Excerpt: E-VIPR Assay Detecting and Measuring NaV Inhibition Properties
Sodium ion channels are voltage-dependent proteins that can be activated by inducing membrane voltage changes by applying electric fields. The electrical stimulation instrument and methods of use, referred to as E-VIPR, are described in International Publication No. WO 2002/008748 A3 and C.-J. Huang et al. Characterization of voltage-gated sodium channel blockers by electrical stimulation and fluorescence detection of membrane potential, 24 Nature Biotech. 439-46 (2006), both of which are incorporated by reference in their entirety. The instrument comprises a microtiter plate handler, an optical system for exciting the coumarin dye while simultaneously recording the coumarin and oxonol emissions, a waveform generator, a current- or voltage-controlled amplifier, and parallel electrode pairs that are inserted into assay plate wells. Under integrated computer control, this instrument passes user-programmed electrical stimulus protocols to cells within the wells of the microtiter plate.
16-20 hours prior to running the assay on E-VIPR, HEK cells expressing a truncated form of human NaV 1.8 with full channel activity were seeded into microtiter 384-well plates, pre-coated with matrigel, at a density of 25,000 cells per well. 2.5-5% KIR2.1 Bacmam virus was added to the final cell suspension before seeding into cell plates. HEK cells were grown in Dulbecco's Modified Eagle's Medium (DMEM) supplemented with 10% FBS (Fetal Bovine Serum, qualified; Sigma #F4135), 1% NEAA (Non-Essential Amino Acids, Gibco #11140), 1% HEPES (Gibco #15630), 1% Pen-Strep (Penicillin-Streptomycin; Gibco #15140) and 5 μg/ml Blasticidin (Gibco #R210-01). Cells were expanded in vented cap cell culture flasks, with 90-95% humidity and 5% CO2.
2.5-5% KIR 2.1 Bacmam virus (produced in-house), prepared as described in Section 3.3 of J. A. Fornwald et al., Gene Expression in Mammalian Cells Using BacMam, a Modified Baculovirus System, 1350 Methods in Molecular Biology 95-116 (2016), the entire contents of which are incorporated by reference. The concentration used can be dependent on viral titer of each batch.
5 mM DiSBAC6(3), a voltage sensitive oxonol acceptor (CAS number 169211-44-3; 5-[3-(1,3-dihexylhexahydro-4,6-dioxo-2-thioxo-5-pyrimidinyl)-2-propen-1-ylidene]-1,3-dihexyldihydro-2-thioxo-4,6(1H,5H)-pyrimidinedione), in dry DMSO. The preparation of DiSBAC6(3) is analogous to that of DiSBAC4(3) as described in Voltage Sensing by Fluorescence Resonance Energy Transfer in Single Cells, Gonzalez, J. E. and Tsien, R. Y. (1995) Biophys. J. 69, 1272-1280.
5 mM CC2-DMPE, a commercially available membrane-bound coumarin phospholipid FRET donor (ThermoFisher Scientific catalog number K1017, CAS number 393782-57-5; tetradecanoic acid, 1,1′-[(1R)-1-[8-(6-chloro-7-hydroxy-2-oxo-2H-1-benzopyran-3-yl)-3-hydroxy-3-oxido-8-oxo-2,4-dioxa-7-aza-3-phosphaoct-1-yl]-1,2-ethanediyl] ester) was prepared in dry DMSO. See also, Improved indicators of cell membrane potential that use fluorescence resonance energy transfer, Gonzalez, J. E. and Tsien, R. Y. (1997) Chem. Biol. 4, 269-277.
Voltage Assay Background Suppression Compound (VABSC-1) is prepared in H2O (89-363 mM, range used to maintain solubility)
Human Serum (HS, Millipore #S1P1-01KL, or Sigma SLBR5469V and SLBR5470V as a 50%/50% mixture, for 25% assay final concentration)
• Sodium Chloride 160 mM (9.35 g/L), Potassium Chloride, 4.5 mM (0.335 g/L), Glucose • 10 mM (1.8 g/L), Magnesium Chloride (Anhydrous) 1 mM (0.095 g/L), Calcium • Chloride 2 mM (0.222 g/L), HEPES 10 mM (2.38 g/L) in water.
• Sodium Chloride 96 mM (5.61 g/L), Potassium Chloride 4.5 mM (0.335 g/L), • Tetramethylammonium (TMA)-Cl 64 mM (7.01 g/L), Glucose 10 mM (1.8 g/L), • Magnesium Chloride (Anhydrous) 1 mM (0.095 g/L), Calcium Chloride 2 mM (0.222 • g/L) HEPES 10 mM (2.38 g/L) in water. […]

Chain of human NaV 1.8 (Q9Y5Y9 126-1722 limits assumed): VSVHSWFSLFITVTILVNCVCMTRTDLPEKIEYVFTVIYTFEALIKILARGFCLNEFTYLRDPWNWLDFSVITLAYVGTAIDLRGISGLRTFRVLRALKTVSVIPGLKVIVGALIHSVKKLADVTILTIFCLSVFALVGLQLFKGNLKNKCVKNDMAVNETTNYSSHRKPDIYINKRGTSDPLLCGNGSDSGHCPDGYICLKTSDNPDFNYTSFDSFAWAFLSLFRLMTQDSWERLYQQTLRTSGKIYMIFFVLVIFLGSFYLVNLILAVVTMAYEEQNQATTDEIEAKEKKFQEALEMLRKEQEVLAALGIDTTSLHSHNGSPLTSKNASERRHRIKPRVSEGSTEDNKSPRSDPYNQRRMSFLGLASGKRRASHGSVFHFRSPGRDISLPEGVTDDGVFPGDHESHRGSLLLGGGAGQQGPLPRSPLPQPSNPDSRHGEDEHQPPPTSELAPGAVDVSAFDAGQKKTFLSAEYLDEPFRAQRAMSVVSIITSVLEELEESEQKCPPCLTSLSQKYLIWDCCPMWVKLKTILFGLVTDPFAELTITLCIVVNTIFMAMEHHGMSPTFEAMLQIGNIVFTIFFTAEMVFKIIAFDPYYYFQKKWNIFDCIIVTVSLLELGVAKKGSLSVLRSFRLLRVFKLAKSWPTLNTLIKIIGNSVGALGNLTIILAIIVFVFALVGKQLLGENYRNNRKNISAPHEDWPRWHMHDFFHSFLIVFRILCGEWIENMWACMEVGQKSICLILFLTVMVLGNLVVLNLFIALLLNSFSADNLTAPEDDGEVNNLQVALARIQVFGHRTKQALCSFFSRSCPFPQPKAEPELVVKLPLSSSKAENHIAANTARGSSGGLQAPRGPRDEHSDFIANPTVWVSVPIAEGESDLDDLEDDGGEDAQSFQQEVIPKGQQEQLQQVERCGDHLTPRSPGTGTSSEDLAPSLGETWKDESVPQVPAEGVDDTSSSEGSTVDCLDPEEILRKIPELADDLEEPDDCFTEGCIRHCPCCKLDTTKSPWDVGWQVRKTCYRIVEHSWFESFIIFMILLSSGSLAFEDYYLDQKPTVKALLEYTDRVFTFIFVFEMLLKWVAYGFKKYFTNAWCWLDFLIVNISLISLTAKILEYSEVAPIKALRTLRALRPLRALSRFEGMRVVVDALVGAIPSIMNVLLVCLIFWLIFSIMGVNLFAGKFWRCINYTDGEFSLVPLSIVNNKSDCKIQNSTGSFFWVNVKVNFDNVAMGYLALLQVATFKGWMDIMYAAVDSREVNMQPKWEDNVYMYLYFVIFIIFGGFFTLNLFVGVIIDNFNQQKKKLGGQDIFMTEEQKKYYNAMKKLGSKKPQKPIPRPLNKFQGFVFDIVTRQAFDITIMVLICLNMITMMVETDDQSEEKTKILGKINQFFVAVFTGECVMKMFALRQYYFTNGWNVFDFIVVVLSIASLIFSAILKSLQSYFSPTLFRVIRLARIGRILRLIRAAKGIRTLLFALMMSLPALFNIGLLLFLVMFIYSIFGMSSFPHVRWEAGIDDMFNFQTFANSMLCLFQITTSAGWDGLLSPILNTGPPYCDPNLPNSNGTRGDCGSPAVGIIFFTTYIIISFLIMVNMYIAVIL

IC50 | SMILES
10 to 100 nM | COc1c([C@H]2[C@H](C(=O)Nc3cnc4c(c3)OCC4O)O[C@@](C)(C(F)(F)F)[C@H]2C)ccc(F)c1F (single isomer, unassigned) [Compound 1, rel-(2R*,3S*,4S*,5R*)-3-(3,4-difluoro-2-methoxyphenyl)-N-(3-hydroxy-2,3-dihydrofuro[3,2-b]pyridin-6-yl)-4,5-dimethyl-5-(trifluoromethyl)tetrahydrofuran-2-carboxamide]
100 to 1000 nM | COc1c([C@H]2[C@H](C(=O)Nc3cnc4c(c3)OCC4O)O[C@@](C)(C(F)(F)F)[C@H]2C)ccc(F)c1F (single isomer, unassigned) [Compound 2, rel-(2R*,3S*,4S*,5R*)-3-(3,4-difluoro-2-methoxyphenyl)-N-(3-hydroxy-2,3-dihydrofuro[3,2-b]pyridin-6-yl)-4,5-dimethyl-5-(trifluoromethyl)tetrahydrofuran-2-carboxamide]
100 to 1000 nM | COc1c([C@H]2[C@H](C(=O)Nc3cnc4c(c3)CCC4O)O[C@@](C)(C(F)(F)F)[C@H]2C)ccc(F)c1F (single isomer, unassigned) [Compound 3, rel-(2R*,3S*,4S*,5R*)-3-(3,4-difluoro-2-methoxyphenyl)-N-(7-hydroxy-6,7-dihydro-5H-cyclopenta[b]pyridin-3-yl)-4,5-dimethyl-5-(trifluoromethyl)tetrahydrofuran-2-carboxamide]
10 to 100 nM | COc1c([C@H]2[C@H](C(=O)Nc3cnc4c(c3)CCC4O)O[C@@](C)(C(F)(F)F)[C@H]2C)ccc(F)c1F (single isomer, unassigned) [Compound 4, rel-(2R*,3S*,4S*,5R*)-3-(3,4-difluoro-2-methoxyphenyl)-N-(7-hydroxy-6,7-dihydro-5H-cyclopenta[b]pyridin-3-yl)-4,5-dimethyl-5-(trifluoromethyl)tetrahydrofuran-2-carboxamide]
≥ 1000 nM | COCCOc1c([C@@H]2[C@@H](C(=O)Nc3cnc(C(O)CO)nc3)O[C@](C)(C(F)(F)F)[C@@H]2C)ccc(F)c1C (single isomer, unassigned) [Compound 13]
≥ 1000 nM | COCCOc1c([C@H]2[C@@H](C)[C@@](C)(C(F)(F)F)O[C@H]2C(=O)Nc2cnc(C(O)CO)nc2)ccc(F)c1C (single isomer, unassigned) [Compound 15]
≥ 1000 nM | COCCOc1c([C@H]2[C@@H](C(=O)Nc3cnc(C(O)CO)nc3)O[C@@](C)(C(F)(F)F)[C@H]2C)ccc(F)c1C (single isomer, unassigned) [Compound 16]
10 to 100 nM | COCCOc1c([C@H]2[C@H](C(=O)Nc3cnc(C(O)CO)nc3)O[C@@](C)(C(F)(F)F)[C@H]2C)ccc(F)c1C (single isomer, unassigned) [Compound 17]
10 to 100 nM | COCCOc1c([C@H]2[C@H](C(=O)Nc3ccc(C(O)COC)nc3)O[C@@](C)(C(F)(F)F)[C@H]2C)ccc(F)c1F (single isomer, unassigned) [Compound 21, rel-(2R*,3S*,4S*,5R*)-3-(3,4-difluoro-2-(2-methoxyethoxy)phenyl)-N-(6-(1-hydroxy-2-methoxyethyl)pyridin-3-yl)-4,5-dimethyl-5-(trifluoromethyl)tetrahydrofuran-2-carboxamide]
10 to 100 nM | CO[C@@H](C)COc1c([C@H]2[C@H](C(=O)Nc3ccc(CO)nc3)O[C@@](C)(C(F)(F)F)[C@H]2C)ccc(F)c1F [Compound 5, (2R,3S,4S,5R)-3-(3,4-difluoro-2-((S)-2-methoxypropoxy)phenyl)-N-(6-(hydroxymethyl)pyridin-3-yl)-4,5-dimethyl-5-(trifluoromethyl)tetrahydrofuran-2-carboxamide]
10 to 100 nM | CO[C@H](C)COc1c([C@H]2[C@H](C(=O)Nc3ccc(CO)nc3)O[C@@](C)(C(F)(F)F)[C@H]2C)ccc(F)c1F [Compound 6, (2R,3S,4S,5R)-3-(3,4-difluoro-2-((R)-2-methoxypropoxy)phenyl)-N-(6-(hydroxymethyl)pyridin-3-yl)-4,5-dimethyl-5-(trifluoromethyl)tetrahydrofuran-2-carboxamide]
10 to 100 nM | C[C@H]1[C@@H](c2ccc(F)c(F)c2OCC(=O)N(C)C)[C@H](C(=O)Nc2ccc(CO)nc2)O[C@@]1(C)C(F)(F)F [Compound 7, (2R,3S,4S,5R)-3-(2-(2-(dimethylamino)-2-oxoethoxy)-3,4-difluorophenyl)-N-(6-(hydroxymethyl)pyridin-3-yl)-4,5-dimethyl-5-(trifluoromethyl)tetrahydrofuran-2-carboxamide]
100 to 1000 nM | C[C@H]1[C@@H](c2ccc(F)c(F)c2OC2CC3(COC3)C2)[C@H](C(=O)Nc2ccc(CO)nc2)O[C@@]1(C)C(F)(F)F [Compound 8, (2R,3S,4S,5R)-3-(2-((2-oxaspiro[3.3]heptan-6-yl)oxy)-3,4-difluorophenyl)-N-(6-(hydroxymethyl)pyridin-3-yl)-4,5-dimethyl-5-(trifluoromethyl)tetrahydrofuran-2-carboxamide]
10 to 100 nM | C[C@H]1[C@@H](c2ccc(F)c(F)c2OCC2CCOC2)[C@H](C(=O)Nc2ccc(CO)nc2)O[C@@]1(C)C(F)(F)F (stereo partly drawn) [Compound 9, (2R,3S,4S,5R)-3-(3,4-difluoro-2-((tetrahydrofuran-3-yl)methoxy)phenyl)-N-(6-(hydroxymethyl)pyridin-3-yl)-4,5-dimethyl-5-(trifluoromethyl)tetrahydrofuran-2-carboxamide]
< 10 nM | COCCOc1c([C@H]2[C@H](C(=O)Nc3ccc([C@@H](O)CO)nc3)O[C@@](C)(C(F)(F)F)[C@H]2C)ccc(F)c1F [Compound 10, (2R,3S,4S,5R)-3-(3,4-difluoro-2-(2-methoxyethoxy)phenyl)-N-(6-((R)-1,2-dihydroxyethyl)pyridin-3-yl)-4,5-dimethyl-5-(trifluoromethyl)tetrahydrofuran-2-carboxamide]
10 to 100 nM | C[C@H]1[C@@H](c2ccc(F)c(F)c2OCCN2CCOCC2)[C@H](C(=O)Nc2ccc([C@@H](O)CO)nc2)O[C@@]1(C)C(F)(F)F [Compound 11, (2R,3S,4S,5R)-3-(3,4-difluoro-2-(2-morpholinoethoxy)phenyl)-N-(6-((R)-1,2-dihydroxyethyl)pyridin-3-yl)-4,5-dimethyl-5-(trifluoromethyl)tetrahydrofuran-2-carboxamide]
10 to 100 nM | C[C@H]1[C@@H](c2ccc(F)c(F)c2OCCOC(F)F)[C@H](C(=O)Nc2ccc([C@@H](O)CO)nc2)O[C@@]1(C)C(F)(F)F [Compound 12, (2R,3S,4S,5R)-3-(2-(2-(difluoromethoxy)ethoxy)-3,4-difluorophenyl)-N-(6-((R)-1,2-dihydroxyethyl)pyridin-3-yl)-4,5-dimethy1-5-(trifluoromethyl)tetrahydrofuran-2-carboxamide]
10 to 100 nM | C[C@H]1[C@@H](c2ccc(F)c(F)c2OCCO)[C@H](C(=O)Nc2ccc(CO)nc2)O[C@@]1(C)C(F)(F)F [Compound 23, (2R,3S,4S,5R)-3-(3,4-difluoro-2-(2-hydroxyethoxy)phenyl)-N-(6-(hydroxymethyl)pyridin-3-yl)-4,5-dimethyl-5-(trifluoromethyl)tetrahydrofuran-2-carboxamide]
